Measured values reported in patent US9174997B2, “4-(4-cyano-2-thioaryl)dihydropyrimidinones and use thereof” (Bayer Intellectual Property GmbH, priority 2007, dated 2015).

Tested on: rat hepatocytes
Assay: Hepatocyte assay to determine the metabolic stability
Assay type: in vitro ADME
Details: after incubation with rat hepatocytes
Procedure: B-6. Hepatocyte Assay to Determine the Metabolic Stability
The metabolic stability of test compounds in the presence of hepatocytes is determined by incubating the compounds with low concentrations (preferably below or around 1 μM) and with low cell counts (preferably 1*10^6 cells/ml) in order to ensure as far as possible linear kinetic conditions in the experiment. Seven samples of the incubation solution are taken in a fixed time pattern for the […] analysis in order to determine the half-life (i.e. the degradation) of the compound in each case. Various clearance parameters (CL) and Fmax values are calculated from this half-life (see below).
The Cl and Fmax values represent a measure of the phase 1 and phase 2 metabolism of the compounds in the hepatocytes. In order to minimize the influence of the organic solvent on the enzymes in the incubation mixtures, this concentration is generally limited to 1% (acetonitrile) or 0.1% (DMSO).
A cell count for hepatocytes in the liver of 1.1*10^8 cells/g of liver is used for calculation for all species and breeds.
The calculated parameters and their meaning are:
Representative values for the compounds according to the invention from this assay after incubation of the compounds with rat hepatocytes are shown in Table B below: […]

CLblood, calculated blood clearance (well stirred model) [mL/min/kg]	Fmax, maximum possible bioavailability after oral administration (well-stirred) [%]	SMILES
3.3	96	CC1=C(C#N)[C@@H](c2ccc(C#N)cc2S(C)(=O)=O)NC(=O)N1c1cccc(C(F)(F)F)c1 [Example 6, (4S)-4-[4-Cyano-2-(methylsulfonyl)phenyl]-6-methyl-2-oxo-1-[3-(trifluoromethyl)phenyl]-1,2,3,4-tetrahydropyrimidine-5-carbonitrile]
6.7	91	CCS(=O)(=O)N1C(=O)N(c2cccc(C(F)(F)F)c2)C(C)=C(C#N)[C@H]1c1ccc(C#N)cc1S(C)(=O)=O [Example 31, (4S)-4-[4-Cyano-2-(methylsulfonyl)phenyl]-6-methyl-3-(ethylsulfonyl)-2-oxo-1-[3-(trifluoromethyl)phenyl]-1,2,3,4-tetrahydropyrimidine-5-carbonitrile]
10	87	CC1=C(C#N)[C@@H](c2ccc(C#N)cc2S(C)(=O)=O)N(C)C(=O)N1c1cccc(C(F)(F)F)c1 [Example 33, (4S)-4-[4-Cyano-2-(methylsulfonyl)phenyl]-3,6-dimethyl-2-oxo-1-[3-(trifluoromethyl)phenyl]-1,2,3,4-tetrahydropyrimidine-5-carbonitrile]
12	83	CC1=C(C#N)[C@@H](c2ccc(C#N)cc2S(C)(=O)=O)N(S(=O)(=O)c2cn(C)c(C)n2)C(=O)N1c1cccc(C(F)(F)F)c1 [Example 92]

Continued, compound first:

SMILES	CLblood, calculated blood clearance (well stirred model) [mL/min/kg]	Fmax, maximum possible bioavailability after oral administration (well-stirred) [%]
CN1CC2=C(C1=O)C(c1ccc(C#N)cc1S(C)(=O)=O)N(C(=O)NCCO)C(=O)N2c1cccc(C(F)(F)F)c1 (racemic) [Example 38, (rac)-4-[4-Cyano-2-(methylsulfonyl)phenyl]-N-(2-hydroxyethyl)-6-methyl-2,5-dioxo-1-[3-(trifluoromethyl)phenyl]-1,2,4,5,6,7-hexahydro-3H-pyrrolo[3,4-d]pyrimidine-3-carboxamide]	3.3	96
CC1=C(C(N)=O)[C@@H](c2ccc(C#N)cc2S(C)(=O)=O)NC(=O)N1c1cccc(C(F)(F)F)c1 [Example 5, (4S)-4-[4-Cyano-2-(methylsulfonyl)phenyl]-6-methyl-2-oxo-1-[3-(trifluoromethyl)phenyl]-1,2,3,4-tetrahydropyrimidine-5-carboxamide]	0	100
CC1=C(C#N)[C@@H](c2ccc(C#N)cc2S(C)(=O)=O)N(CC(=O)N2CCNC(=O)C2)C(=O)N1c1cccc(C(F)(F)F)c1 [Example 25, (4S)-4-[4-Cyano-2-(methylsulfonyl)phenyl]-6-methyl-2-oxo-3-[2-oxo-2-(3-oxopiperazin-1-yl)ethyl]-1-[3-(trifluoromethyl)phenyl]-1,2,3,4-tetrahydropyrimidine-5-carbonitrile]	5	93
CC1=C(C#N)[C@@H](c2ccc(C#N)cc2S(C)(=O)=O)N(S(=O)(=O)c2ccccc2OC(F)(F)F)C(=O)N1c1cccc(C(F)(F)F)c1 [Example 29, (4S)-4-[4-Cyano-2-(methylsulfonyl)phenyl]-6-methyl-3-{[2-(trifluoromethoxy)phenyl]sulfonyl}-2-oxo-1-[3-(trifluoromethyl)phenyl]-1,2,3,4-tetrahydropyrimidine-5-carbonitrile]	6.7	90
